Experimental data as given in paper PMC4383706 (Cancer prevention research (Philadelphia, Pa.), 2015).
“Also recorded” adds a separate entry of the source. Where two headings read alike, the source gives them in different places.

Columns and labels:
[1] = system: OH-BBN-induced urinary bladder cancers; conditions: prior studies; at their HEDs (aspirin at doses in substantial excess of its HED), even when initiated after pre-invasive microscopic cancers; cited from earlier work
[2] = NPX 40 mg/Kg BW gavage; for CI: serum
[3] = humans; cited from earlier work
[4] = system: OH-BBN-induced urinary bladder cancers; conditions: NPX limited treatment vs vehicle; Supplementary Fig. 3
[5] = system: OH-BBN-induced urinary bladder cancers; assay: OH-BBN-induced urinary bladder cancer model; type: in vivo, Female Fischer-344 rats; conditions: for number of rats with large urinary bladder cancers (>200 mg) at end of study: vehicle 24/25; for final weights of urinary bladder plus cancers vs vehicle control: end of study, Supplementary Fig. 1A/1B
urinary bladder cancer = conditions: dogs; cited from earlier work
colon adenomas = conditions: cited from earlier work
[6] = system: colon, bladder, skin tumors; conditions: doses which correspond to human doses of 100 or 325 mg; cited from earlier work
[7] = rats, omeprazole levels at the human equivalent dose; cited from earlier work
[8] = multiple clinical studies; cited from earlier work
[9] = low to moderate doses of aspirin

Compound: COc1ccc2cc([C@H](C)C(=O)OCCCCO[N+](=O)[O-])ccc2c1 [NO-NPX]
- blocking the development of large palpable cancers [1]: effective

Compound: COc1ccc2cc([C@H](C)C(=O)O)ccc2c1 [NPX, naproxen]
- time for which serum levels greater than 100 uM were achieved following gavage [2]: less than 6 hours
- CI ([2]; 14 Day (14 consecutive days)): 0.817 mL/min/kg
- CI ([2]; 24 hour (1 day) time point): 0.967 mL/min/kg
- accumulation in urine [3]: preferentially accumulates in urine
- levels of phosphorylated AKT (S473) [4]: slightly, but significantly, decrease
- phosphorylation of PI3K [4]: slightly, but significantly, decrease
- blocking the development of large palpable cancers [1]: effective
- number of rats with large urinary bladder cancers (>200 mg) at end of study ([5]; 1 week daily NPX (40 mg/kg BW/day)/1week vehicle (Group B)): 6/29
- number of rats with large urinary bladder cancers (>200 mg) at end of study ([5]; 3 week daily NPX (40 mg/kg BW/day)/3 week vehicle (Group C)): 5/28
- rats with palpable cancers, protocol C ([5]; 3 weeks daily NPX/3 week vehicle, vehicle 96%, P<0.01): 19%
- inhibition of urinary bladder cancer formation ([5]; NPX by gavage daily, 1 week on/1 week off, or 3 weeks on/3 weeks off, P<.005): 73–82%
- rats with palpable cancers, protocol A ([5]; NPX daily, beginning 2 weeks after last OH-BBN, vehicle 96%, P<0.01): 27%
- reduction of urinary bladder cancer incidence ([5]; NPX daily, P<0.01): approximately 75%
- final weights of urinary bladder plus cancers vs vehicle control [5]: final weights were higher in vehicle controls than in any of the three NPX treatment groups; also recorded: significantly different from control

Compound: CN1C(C(=O)Nc2ccccn2)=C(O)c2ccccc2S1(=O)=O [Piroxicam]
- therapeutic efficacy in urinary bladder cancer (urinary bladder cancer): has shown therapeutic efficacy

Compound: CC(=O)Oc1ccccc1C(=O)O [aspirin]
- decrease in advanced adenomas (colon adenomas; [9]): 35–40%
- decrease in total adenomas (colon adenomas; [9]): 20–25%
- blocking the development of large palpable cancers [1]: effective
- preventive efficacy in animal models [6]: routinely ineffective

Compound: Cc1ccc(-c2cc(C(F)(F)F)nn2-c2ccc(S(N)(=O)=O)cc2)cc1 [celecoxib]
- decrease in advanced adenomas (colon adenomas; clinical trial): 55–65%
- decrease in total colon adenomas (colon adenomas; clinical trial): ~45%
- blocking the development of large palpable cancers [1]: effective

Compound: COc1ccc2[nH]c([S+]([O-])Cc3ncc(C)c(OC)c3C)nc2c1 (stereo not shown) [omeprazole]
- acidity of the stomach [7]: decreased the acidity of the stomach
- decrease of GI bleeding [8]: 50–75%
- final weights of urinary bladder plus cancers vs vehicle control [5]: larger in size than tumors in rats given the vehicle alone

Compound: CN(CCOc1ccc(CC2SC(=O)NC2=O)cc1)c1ccccn1 (stereo not shown) [rosiglitazone]
- tumor latency ([5]; rosiglitazone 10 mg/kg BW/day by gavage, 10 rats): greatly decreased tumor latency

Compound: CC1=C(CC(=O)O)c2cc(F)ccc2/C1=C\c1ccc([S+](C)[O-])cc1 (stereo not shown) [sulindac]
- blocking the development of large palpable cancers [1]: effective
